Laboratory results published in patent US20260262643A1, “HERBICIDAL BENZOXAZINES” (FMC CORPORATION, priority 2022, published 2026).

How the values were obtained:
blackgrass [1] = assay: Test C preemergence; type: in vivo, Alopecurus myosuroides; settings: 0 to 100 scale (0 no effect, 100 complete control)
Method in brief: (§1)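 Seeds sown in loam soil–sand blend received a directed preemergence soil spray of test chemical in non-phytotoxic solvent with surfactant; postemergence plants (2–10 cm, one- to two-leaf stage) were sprayed with the same formulation. Greenhouse-held 10 days, then visually rated for injury versus untreated controls, 0 (no effect) to 100 (complete control).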

corn [2] = assay: Test C preemergence; type: in vivo, Zea mays; settings: 0 to 100 scale (0 no effect, 100 complete control)
Method in brief: as §1

foxtail, giant [3] = assay: Test C preemergence; type: in vivo, Setaria faberi; settings: 0 to 100 scale (0 no effect, 100 complete control)
Method in brief: as §1

goosegrass [4] = assay: Test C preemergence; type: in vivo, Eleusine indica; settings: 0 to 100 scale (0 no effect, 100 complete control)
Description: (§2) Seeds of plant species selected from barnyardgrass (Echinochloa crusgalli), blackgrass (Alopecurus myosuroides), corn (Zea mays), foxtail, giant (giant foxtail, Setaria faberi), green foxtail (Setaria viridis), goosegrass (Eleusine indica), kochia (Bassia scoparia), oat, wild (wild oat, Avena fatua), pigweed, palmer (palmer amaranth, palmer pigweed, Amaranthus palmeri), Pigweed, Redroot (redroot pigweed, Amaranthus retroflexus), ragweed (common ragweed, Ambrosia artemisiifolia), ryegrass, Italian ([…] ryegrass, Lolium multiflorum), soybean (Glycine max), and wheat (Triticum aestivum) were planted into a blend of loam soil and sand and treated preemergence with a directed soil spray using test chemicals formulated in a non-phytotoxic solvent mixture which included a surfactant. At the same time, plants selected from these crops and weed species and also galium (catchweed bedstraw, Galium aparine) and horseweed (Erigeron canadensis) were planted in pots containing the same blend of loam soil and sand and treated with postemergence applications of test chemicals formulated in the same manner. Plants ranged in height from 2 to 10 cm and were in the one- to two-leaf stage for the postemergence treatment. Treated plants and untreated controls were maintained in a greenhouse for 10 days, after which time all treated plants were compared to untreated controls and visually evaluated for injury. Plant response ratings, summarized in Table C, are based on a 0 to 100 scale where 0 is no effect and 100 is complete control. A dash (-) response means no test result.

kochia [5] = assay: Test C preemergence; type: in vivo, Bassia scoparia; settings: 0 to 100 scale (0 no effect, 100 complete control)
Method in brief: as §1

oat, wild [6] = assay: Test C preemergence; type: in vivo, Avena fatua; settings: 0 to 100 scale (0 no effect, 100 complete control)
Method in brief: as §1

pigweed, palmer [7] = assay: Test C preemergence; type: in vivo, Amaranthus palmeri; settings: 0 to 100 scale (0 no effect, 100 complete control)
Method in brief: as §1

ragweed [8] = assay: Test C preemergence; type: in vivo, Ambrosia artemisiifolia; settings: 0 to 100 scale (0 no effect, 100 complete control)
Method in brief: as §1

ryegrass, Italian [9] = assay: Test C preemergence; type: in vivo, Lolium multiflorum; settings: 0 to 100 scale (0 no effect, 100 complete control)
Method in brief: as §1

soybean [10] = assay: Test C preemergence; type: in vivo, Glycine max; settings: 0 to 100 scale (0 no effect, 100 complete control)
Method in brief: as §1

wheat [11] = assay: Test C preemergence; type: in vivo, Triticum aestivum; settings: 0 to 100 scale (0 no effect, 100 complete control)
Method in brief: as §1

blackgrass [12] = assay: Test C postemergence; type: in vivo, Alopecurus myosuroides; settings: 10 days
Method in brief: as §1

corn [13] = assay: Test C postemergence; type: in vivo, Zea mays; settings: 10 days
Method in brief: as §1

foxtail, giant [14] = assay: Test C postemergence; type: in vivo, Setaria faberi; settings: 10 days
Method in brief: as §1

goosegrass [15] = assay: Test C postemergence; type: in vivo, Eleusine indica; settings: 10 days
Description: as §2

kochia [16] = assay: Test C postemergence; type: in vivo, Bassia scoparia; settings: 10 days
Method in brief: as §1

oat, wild [17] = assay: Test C postemergence; type: in vivo, Avena fatua; settings: 10 days
Method in brief: as §1

pigweed, palmer [18] = assay: Test C postemergence; type: in vivo, Amaranthus palmeri; settings: 10 days
Method in brief: as §1

ragweed [19] = assay: Test C postemergence; type: in vivo, Ambrosia artemisiifolia; settings: 10 days
Method in brief: as §1

ryegrass, Italian [20] = assay: Test C postemergence; type: in vivo, Lolium multiflorum; settings: 10 days
Method in brief: as §1

soybean [21] = assay: Test C postemergence; type: in vivo, Glycine max; settings: 10 days
Method in brief: as §1

wheat [22] = assay: Test C postemergence; type: in vivo, Triticum aestivum; settings: 10 days
Method in brief: as §1

galium = assay: Test C postemergence; type: in vivo, Galium aparine; settings: 10 days
Method in brief: as §1

horseweed = assay: Test C postemergence; type: in vivo, Erigeron canadensis; settings: 10 days
Method in brief: as §1

barnyardgrass = assay: Test D flooded paddy test; type: in vivo, Echinochloa crus-galli; settings: 250 g ai/ha, applied to paddy water, visual rating after 13 to 14 days, scale 0 to 100 (0 no effect, 100 complete control)
Method in brief: (§3)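 Post-flood water application at the 2-leaf stage; 3 cm flood depth kept constant; visual control rating 0–100 after 13–14 days greenhouse growth.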

ducksalad = assay: Test D flooded paddy test; type: in vivo, Heteranthera limosa; settings: 250 g ai/ha, applied to paddy water, visual rating after 13 to 14 days, scale 0 to 100 (0 no effect, 100 complete control)
Method in brief: as §3

rice = assay: Test D flooded paddy test; type: in vivo, Oryza sativa; settings: 250 g ai/ha, applied to paddy water, visual rating after 13 to 14 days, scale 0 to 100 (0 no effect, 100 complete control)
Method in brief: as §3

sedge, umbrella = assay: Test D flooded paddy test; type: in vivo, Cyperus difformis; settings: 250 g ai/ha, applied to paddy water, visual rating after 13 to 14 days, scale 0 to 100 (0 no effect, 100 complete control)
Method in brief: as §3

[23] = Preemergence, 500 g ai/ha, visual rating after 10 days
[24] = Test C, preemergence, 125 g ai/ha
[25] = 125 g ai/ha, postemergence, 0 to 100 scale, 0 no effect, 100 complete control
[26] = Postemergence, 500 g ai/ha, visual 0 to 100 scale (0 no effect, 100 complete control)

SMILES: Cc1cccc2c1OC(C)CN2C(=O)c1cccc(-n2ncnc2C2CC2)c1 (racemic) [Compound 196]
- Plant response rating, Blackgrass (blackgrass [1]; [23]): 0
- Blackgrass plant response rating (blackgrass [1]; [24]): 0
- Plant response rating, Corn (corn [2]; [23]): 20
- Corn plant response rating (corn [2]; [24]): 0
- Plant response rating, Foxtail, Giant (foxtail, giant [3]; [23]): 0
- Foxtail, Giant plant response rating (foxtail, giant [3]; [24]): 0
- Plant response rating, Goosegrass (goosegrass [4]; [23]): 0
- Goosegrass plant response rating (goosegrass [4]; [24]): 0
- Plant response rating, Kochia (kochia [5]; [23]): 0
- Kochia plant response rating (kochia [5]; [24]): 0
- Plant response rating, Oat, Wild (oat, wild [6]; [23]): 0
- Oat, Wild plant response rating (oat, wild [6]; [24]): 0
- Plant response rating, Pigweed, Palmer (pigweed, palmer [7]; [23]): 0
- Pigweed, Palmer plant response rating (pigweed, palmer [7]; [24]): 0
- Plant response rating, Ragweed (ragweed [8]; [23]): 0
- Ragweed plant response rating (ragweed [8]; [24]): 0
- Plant response rating, Ryegrass, Italian (ryegrass, Italian [9]; [23]): 0
- Ryegrass, Italian plant response rating (ryegrass, Italian [9]; [24]): 0
- Plant response rating, Soybean (soybean [10]; [23]): 0
- Soybean plant response rating (soybean [10]; [24]): 0
- Plant response rating, Wheat (wheat [11]; [23]): 0
- Wheat plant response rating (wheat [11]; [24]): 0
- Plant response rating, Blackgrass (blackgrass [12]; [25]): 0
- Plant response rating, Blackgrass (blackgrass [12]; [26]): 0
- Plant response rating, Corn (corn [13]; [25]): 0
- Plant response rating, Corn (corn [13]; [26]): 0
- Plant response rating, Foxtail, Giant (foxtail, giant [14]; [25]): 0
- Plant response rating, Foxtail, Giant (foxtail, giant [14]; [26]): 0
- Plant response rating, Goosegrass (goosegrass [15]; [25]): 0
- Plant response rating, Goosegrass (goosegrass [15]; [26]): 0
- Plant response rating, Kochia (kochia [16]; [25]): 0
- Plant response rating, Kochia (kochia [16]; [26]): 0
- Plant response rating, Oat, Wild (oat, wild [17]; [25]): 0
- Plant response rating, Oat, Wild (oat, wild [17]; [26]): 0
- Plant response rating, Pigweed, Palmer (pigweed, palmer [18]; [25]): 30
- Plant response rating, Pigweed, Palmer (pigweed, palmer [18]; [26]): 0
- Plant response rating, Ragweed (ragweed [19]; [25]): 0
- Plant response rating, Ragweed (ragweed [19]; [26]): 0
- Plant response rating, Ryegrass, Italian (ryegrass, Italian [20]; [25]): 0
- Plant response rating, Ryegrass, Italian (ryegrass, Italian [20]; [26]): 0
- Plant response rating, Soybean (soybean [21]; [25]): 0
- Plant response rating, Soybean (soybean [21]; [26]): 0
- Plant response rating, Wheat (wheat [22]; [25]): 0
- Plant response rating, Wheat (wheat [22]; [26]): 0
- Plant response rating, Galium (galium; [25]): 0
- Plant response rating, Galium (galium; [26]): 0
- Plant response rating, Horseweed (horseweed; [25]): 0
- Plant response rating, Horseweed (horseweed; [26]): 0
- Plant response rating, Barnyardgrass (Flood) (barnyardgrass): 0
- Plant response rating, Ducksalad (Flood) (ducksalad): 0
- Plant response rating, Rice (Flood) (rice): 0
- Plant response rating, Sedge, Umbrella (Flood) (sedge, umbrella): 0
